Measured values reported in patent US20140322744A1, “CLONABLE TAG FOR CORRELATIVE LIGHT AND ELECTRON MICROSCOPY LABELING” (INSTITUT CURIE, priority 2011, published 2014).

Test system: E. coli K-12
Assay: Minimal Inhibitory Concentration (MIC) growth test of EuCl3
Type: cell-based
From the text: The inventors were first interested in evaluating Eu toxicity in their working conditions. To this purpose, they have submitted E. coli to a serial of growing tests called Minimal Inhibitory Concentration (MIC). This test aimed to determine the lowest concentration able to inhibit the bacteria growth. It consisted in growing bacteria in presence of several concentrations of the tested compound.
Serial dilution series of the substance to be tested were inoculated with bacteria at 0.3 D.O550 nm diluted 1/16000 in culture medium. D.O550 nm was followed until stationary phase. Minimal concentration of the test substance preventing stationary phase was considered as MIC.
For the Eu MIC determination, the inventors have tested EuCl3 concentrations between 100 μM and 2 mM. E. coli K-12 and pBAD arabinose inducible MTtag transformed E. coli K-12 were tested. E. coli K12 were transformed by electroporation with the pBAD plasmid down control of BAD promoter (Guzman, L. M., et al. J Bacteriol 177, 4121-4130 (1995); Khlebnikov, A. & Keasling, J. D. Biotechnol. Prog. 18, 672-674 (2002)). Bacteria pre-cultures were produced at 37° C. in Luria-Bertani (LB) medium with added ampicillin ([…]) in transformed strain. The pre-cultures were used to inoculate tubes of minimum media M9 (with or without ampicillin) until exponential phase D.O550 nm≈0.3. Then, 1/16000 dilutions were prepared in M9 medium (with or without ampicillin). 1 μl of the diluted bacteria were added to 200 μl of M9-EuCl3 at different concentrations in 96 wells plates. Bacterial grow was followed until stationary phase. The D.O550 nm was measured on a Tecan Infinite 200 PRO.

## [Cl][Eu]([Cl])[Cl] [EuCl3]
E. coli K-12 MG1655 growth curve, several concentrations of Europium (FIG. 1)
  Effect on bacterial growth: doesn't have a dramatic negative effect on bacterial growth
E. coli K-12 and MTtag transformed E. coli K-12, M9 medium, 100 μM to 2 mM tested, repeated 10 times
  MIC: EuCl3 concentration until which bacteria is viable: higher than 2 mM
M9 medium, maximal concentration tested 2 mM
  Precipitation above maximal concentration tested: precipitates at higher concentrations
Does not impact bacterial viability
  EuCl3 concentration after which growing slow down is observed: > 1 mM
Transformed or not
  Toxicity for E. coli K-12: not toxic
